Data taken from US10738056B2 (Aduro BioTech, Inc., priority 2017, dated 2020).

Tests used:
[1] = biological target: Human cGAS amino acids 155-522 (Homo sapiens (Human), UniProt Q8N884); assay: cGAS biochemical activity assay (ATP remaining, Kinase-Glo Max luminescence); settings: human cGAS 155-522, ATP remaining (Kinase-Glo Max); read-out: cGAS IC50
[2] = test system: cGAS/STING pathway in THP1 cells; assay: THP1 cell-based cGAS/STING pathway activity assay (IRF-3-linked luciferase reporter); settings: Homo sapiens, THP-1
How it was run: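 THP1 cells carrying an IRF-3-driven luciferase reporter were read across a range of compound concentrations, and IC50 values were derived from these concentration responses; the assay upper limit was 100 μM.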

Chain of Human cGAS amino acids 155-522 (Q8N884 157-522): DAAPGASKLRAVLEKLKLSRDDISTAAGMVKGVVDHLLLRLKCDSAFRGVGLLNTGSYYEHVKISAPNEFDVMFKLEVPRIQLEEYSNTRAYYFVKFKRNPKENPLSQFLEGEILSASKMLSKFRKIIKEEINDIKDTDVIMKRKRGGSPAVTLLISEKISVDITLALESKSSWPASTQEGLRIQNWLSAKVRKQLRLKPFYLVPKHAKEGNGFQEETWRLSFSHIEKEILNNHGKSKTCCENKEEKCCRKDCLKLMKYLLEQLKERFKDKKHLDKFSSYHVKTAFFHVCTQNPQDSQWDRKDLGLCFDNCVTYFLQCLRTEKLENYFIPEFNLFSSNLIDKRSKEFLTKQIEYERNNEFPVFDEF

## Cc1[nH]c2c(-c3ccccc3)c(C(F)(F)F)nn2c(=O)c1-c1nc2ccccc2o1 [Compound C1011, 6-(benzo[d]oxazol-2-yl)-5-methyl-3-phenyl-2-(trifluoromethyl)pyrazolo[1,5-a]pyrimidin-7(4H)-one]
[1]
  IC50: > 250 µM
[2]
  IC50: < 20 µM

## Cc1[nH]c2c(-c3ccccc3)c(C(F)(F)F)nn2c(=O)c1-c1ncc(C2CCCOC2)o1 (stereo not drawn) [Compound C1027, 5-methyl-3-phenyl-6-(5-(tetrahydro-2H-pyran-3-yl)oxazol-2-yl)-2-(trifluoromethyl)pyrazolo[1,5-a]pyrimidin-7(4H)-one]
[1]
  IC50: < 20 µM
[2]
  IC50: 20 to 100 µM

## CC(=O)N1CCCCC1c1nnc(-c2c(C)[nH]c3c(-c4ccccc4)c(C(F)(F)F)nn3c2=O)o1 (stereo not drawn) [Compound D1057, 6-(5-(1-acetylpiperidin-2-yl)-1,3,4-oxadiazol-2-yl)-5-methyl-3-phenyl-2-(trifluoromethyl)pyrazolo[1,5-a]pyrimidin-7(4H)-one]
[1]
  IC50: < 20 µM
[2]
  IC50: 20 to 100 µM

## CNc1cc(OC)c2nc(-c3c(C)[nH]c4c(-c5ccccc5)c(C(F)(F)F)nn4c3=O)oc2c1 [Compound C1161, 6-(4-methoxy-6-(methylamino)benzo[d]oxazol-2-yl)-5-methyl-3-phenyl-2-(trifluoromethyl)pyrazolo[1,5-a]pyrimidin-7(4H)-one]
[1]
  IC50: < 20 µM
[2]
  IC50: < 20 µM

## Cc1[nH]c2c(-c3ccccc3)c(C(F)(F)F)nn2c(=O)c1-c1nnc(-c2nccc(O)n2)o1 [Compound D1078, 6-(5-(4-hydroxypyrimidin-2-yl)-1,3,4-oxadiazol-2-yl)-5-methyl-3-phenyl-2-(trifluoromethyl)pyrazolo[1,5-a]pyrimidin-7(4H)-one]
[1]
  IC50: < 20 µM
[2]
  IC50: > 100 µM

## COc1cccc2oc(-c3c(COCC(F)F)[nH]c4c(-c5ccccc5)c(C(F)(F)F)nn4c3=O)nc12 [Compound C1232, 5-((2,2-difluoroethoxy)methyl)-6-(4-methoxybenzo[d]oxazol-2-yl)-3-phenyl-2-(trifluoromethyl)pyrazolo[1,5-a]pyrimidin-7(4H)-one]
[1]
  IC50: < 20 µM
[2]
  IC50: 20 to 100 µM

## Cc1[nH]c2c(-c3ccccc3)c(C(F)(F)F)nn2c(=O)c1C(=O)Nc1cccc2c1OCC2 [Compound A1101, N-(2,3-dihydrobenzofuran-7-yl)-5-methyl-7-oxo-3-phenyl-2-(trifluoromethyl)-4,7-dihydropyrazolo[1,5-a]pyrimidine-6-carboxamide]
[1]
  IC50: < 20 µM
[2]
  IC50: < 20 µM

## Cc1[nH]c2c(-c3ccccc3)c(C(F)(F)F)nn2c(=O)c1-c1nc2c([nH]1)CCCC2 [Compound C1017, 5-methyl-3-phenyl-6-(4,5,6,7-tetrahydro-1H-benzo[d]imidazol-2-yl)-2-(trifluoromethyl)pyrazolo[1,5-a]pyrimidin-7(4H)-one]
[1]
  IC50: < 20 µM
[2]
  IC50: 20 to 100 µM

## COc1c(Cl)ccc2oc(-c3c(C)[nH]c4c(-c5ccccc5)c(C#N)nn4c3=O)nc12 [Compound C1206, 6-(5-chloro-4-methoxybenzo[d]oxazol-2-yl)-5-methyl-7-oxo-3-phenyl-4,7-dihydropyrazolo[1,5-a]pyrimidine-2-carbonitrile]
[1]
  IC50: < 20 µM
[2]
  IC50: > 100 µM

## COc1cccc(NC(=O)c2c(C)[nH]c3c(-c4ccccc4)c(C(F)(F)F)nn3c2=O)c1 [Compound A1032, N-(3-methoxyphenyl)-5-methyl-7-oxo-3-phenyl-2-(trifluoromethyl)-4,7-dihydropyrazolo[1,5-a]pyrimidine-6-carboxamide]
[1]
  IC50: < 20 µM
[2]
  IC50: < 20 µM

## CC(=O)N1CCCC(c2nnc(-c3c(C)[nH]c4c(-c5ccccc5)c(C(F)(F)F)nn4c3=O)o2)C1 (stereo not drawn) [Compound D1041, 6-(5-(1-acetylpiperidin-3-yl)-1,3,4-oxadiazol-2-yl)-5-methyl-3-phenyl-2-(trifluoromethyl)pyrazolo[1,5-a]pyrimidin-7(4H)-one]
[1]
  IC50: 20 to 250 µM
[2]
  IC50: > 100 µM

## Cc1[nH]c2c(-c3ccccc3)c(C#N)nn2c(=O)c1-c1nc2cccc(N)c2o1 [Compound C1230, 6-(7-aminobenzo[d]oxazol-2-yl)-5-methyl-7-oxo-3-phenyl-4,7-dihydropyrazolo[1,5-a]pyrimidine-2-carbonitrile]
[1]
  IC50: < 20 µM
[2]
  IC50: > 100 µM

## Cc1[nH]c2c(-c3ccccc3)c(C(F)(F)F)nn2c(=O)c1-c1nnc([C@H]2CCCOC2)o1 [Compound D1025, (S)-5-methyl-3-phenyl-6-(5-(tetrahydro-2H-pyran-3-yl)-1,3,4-oxadiazol-2-yl)-2-(trifluoromethyl)pyrazolo[1,5-a]pyrimidin-7(4H)-one]
[1]
  IC50: < 20 µM
[2]
  IC50: 20 to 100 µM

## COc1cc(C(=N)N)cc2oc(-c3c(C)[nH]c4c(-c5ccccc5)c(C(F)(F)F)nn4c3=O)nc12 [Compound C1141, 4-methoxy-2-(5-methyl-7-oxo-3-phenyl-2-(trifluoromethyl)-4,7-dihydropyrazolo[1,5-a]pyrimidin-6-yl)benzo[d]oxazole-6-carboximidamide]
[1]
  IC50: < 20 µM
[2]
  IC50: > 100 µM

## COc1cccc(NC(=O)c2c(C)[nH]c3c(-c4ccccc4)c(C(F)(F)F)nn3c2=O)c1Cl [Compound A1135, N-(2-chloro-3-methoxyphenyl)-5-methyl-7-oxo-3-phenyl-2-(trifluoromethyl)-4,7-dihydropyrazolo[1,5-a]pyrimidine-6-carboxamide]
[1]
  IC50: < 20 µM
[2]
  IC50: < 20 µM

## COC1CCCN(c2nnc(-c3c(C)[nH]c4c(-c5ccccc5)c(C(F)(F)F)nn4c3=O)o2)C1 (stereo not drawn) [Compound D1027, 6-(5-(3-methoxypiperidin-1-yl)-1,3,4-oxadiazol-2-yl)-5-methyl-3-phenyl-2-(trifluoromethyl)pyrazolo[1,5-a]pyrimidin-7(4H)-one]
[1]
  IC50: < 20 µM
[2]
  IC50: > 100 µM

## CCc1[nH]c2c(-c3ccccc3)c(C(F)(F)F)nn2c(=O)c1-c1nc2c(OC)cccc2o1 [Compound C1183, 5-ethyl-6-(4-methoxybenzo[d]oxazol-2-yl)-3-phenyl-2-(trifluoromethyl)pyrazolo[1,5-a]pyrimidin-7(4H)-one]
[1]
  IC50: < 20 µM
[2]
  IC50: < 20 µM

## COc1ccc2oc(-c3c(C)[nH]c4c(-c5ccccc5)c(C(F)(F)F)nn4c3=O)nc2c1 [Compound C1012, 6-(5-methoxybenzo[d]oxazol-2-yl)-5-methyl-3-phenyl-2-(trifluoromethyl)pyrazolo[1,5-a]pyrimidin-7(4H)-one]
[1]
  IC50: > 250 µM
[2]
  IC50: < 20 µM

## COc1c(N)ccc2oc(-c3c(C)[nH]c4c(-c5ccccc5)c(C#N)nn4c3=O)nc12 [Compound C1250, 6-(5-amino-4-methoxybenzo[d]oxazol-2-yl)-5-methyl-7-oxo-3-phenyl-4,7-dihydropyrazolo[1,5-a]pyrimidine-2-carbonitrile]
[1]
  IC50: < 20 µM
[2]
  IC50: > 100 µM

## COC(=O)[C@@H]1COC(c2c(C)[nH]c3c(-c4ccccc4)c(C(F)(F)F)nn3c2=O)=N1 [Compound C1187, methyl (S)-2-(5-methyl-7-oxo-3-phenyl-2-(trifluoromethyl)-4,7-dihydropyrazolo[1,5-a]pyrimidin-6-yl)-4,5-dihydrooxazole-4-carboxylate]
[1]
  IC50: < 20 µM
[2]
  IC50: > 100 µM

## COc1cc(C#N)cc2oc(-c3c(C)[nH]c4c(-c5ccccc5)c(C(F)(F)F)nn4c3=O)nc12 [Compound C1112, 4-methoxy-2-(5-methyl-7-oxo-3-phenyl-2-(trifluoromethyl)-4,7-dihydropyrazolo[1,5-a]pyrimidin-6-yl)benzo[d]oxazole-6-carbonitrile]
[1]
  IC50: 20 to 250 µM
[2]
  IC50: > 100 µM
